Data published in patent EP0677522A1, “8-METHOXYQUINOLONECARBOXYLIC ACID DERIVATIVE” (priority 1992, dated 1994).
Values after ≈ are worked out from the molar mass of the structure shown.

Columns and labels:
Type in all cases: cell-based
[1] = test system: Chlamydia trachomatis D/UW-3Cx; experiment: Antibacterial effect against specific bacteria (MIC); settings: same manner as Experimental Example 1
Description: (§1) The in vitro antibacterial activity (minimum inhibitory concentration, MIC, µg/ml) of the test compounds was determined according to Japan Society of Chemotherapy Standard [Chemotherapy, vol. 29, pp 76-79 (1981)].
(§2) In the same manner as in Experimental Example 1, the antibacterial effect against specific bacteria such as Chlamydia, Mycoplasma and acid-fast bacteria and anaerobic bacteria was determined.

[2] = test system: Mycoplasma pneumoniae ATCC 29343; experiment: as above; settings: ATCC29343, same manner as Experimental Example 1
Description: as §1, §2

[3] = test system: Mycobacterium smegmatis IFO 13167; experiment: as above; settings: Mycolicibacterium smegmatis, IFO13167; same manner as Experimental Example 1
Description: as §1, §2

B. fragilis BFY-18 = experiment: as above; settings: Bacteroides fragilis, BFY18; same manner as Experimental Example 1
Description: as §1, §2

[4] = test system: Bacteroides fragilis GAI 5560; experiment: as above; settings: GAI5560, same manner as Experimental Example 1
Description: as §1, §2

[5] = test system: Mycobacterium smegmatis IFO 3153; experiment: as above; settings: Mycolicibacterium smegmatis, IFO3153; same manner as Experimental Example 1
Description: as §1, §2

[6] = test system: Ureaplasma urealyticum ATCC 27618; experiment: as above; settings: ATCC27618, same manner as Experimental Example 1
Description: as §1, §2

S. aureus Smith = experiment: MIC of the infectious bacteria used for experimental infection; settings: Staphylococcus aureus; infectious strain of the mouse protection test
Description: as §1
(§3) Experimental infection was caused by intraperitoneal inoculation of respective bacteria to male mice. One hour after the inoculation, a test compound was orally administered to the mice. The therapeutic effect of each test compound was evaluated by reference to the 50% effective dose (ED₅₀) which was based on the survival ratio at 7 days after the administration according to the probit method [Proc. Soc. Exp. Med., Vol. 57, p 261-264 (1944)]. The minimum inhibitory concentration (MIC) of the infectious bacteria used was also determined. […]

E. coli KC-14 = experiment: as above; settings: Escherichia coli, KC14; infectious strain of the mouse protection test
Description: as §1, §3

S. aureus MRSA Y-238 = experiment: as above; settings: Staphylococcus aureus, infectious strain of the mouse protection test
Description: as §1, §3

M.catarrhalis ATCC 25238 = experiment: In vitro antibacterial activity (MIC), Japan Society of Chemotherapy Standard; settings: Moraxella catarrhalis, ATCC25238; inoculated cells 10⁶ cells/ml; medium supplemented with 10% horse blood
Description: as §1
(§4) Inoculated cells were 10⁶ cells/ml and the strain with * was incubated in a medium supplemented with 10% horse blood. The mark "1)" means quinolone resistant MRSA and "2)" means quinolone resistant bacteria.

S. aureus No.88 = experiment: as above; settings: Staphylococcus aureus; quinolone resistant MRSA; inoculated cells 10⁶ cells/ml
Description: as §1, §4

[7] = test system: A.calcoaceticus IFO 13006; experiment: as above; settings: Acinetobacter calcoaceticus, IFO13006; inoculated cells 10⁶ cells/ml
Description: as §1, §4

[8] = test system: Enterobacter cloacae IFO 12937; experiment: as above; settings: IFO12937, inoculated cells 10⁶ cells/ml
Description: as §1, §4

L.monocytogenes VTU-206 = experiment: as above; settings: Listeria monocytogenes, VTU206; inoculated cells 10⁶ cells/ml; medium supplemented with 10% horse blood
Description: as §1, §4

S. viridans America = experiment: as above; settings: Streptococcus viridans; inoculated cells 10⁶ cells/ml; medium supplemented with 10% horse blood
Description: as §1, §4

[9] = test system: Acinetobacter calcoaceticus ATCC 13006; experiment: as above; settings: ATCC13006, inoculated cells 10⁶ cells/ml
Description: as §1, §4

[10] = test system: Escherichia coli NIHJ JC-2; experiment: as above; settings: NIHJJC2, inoculated cells 10⁶ cells/ml
Description: as §1, §4

[11] = test system: Streptococcus pyogenes C-203; experiment: as above; settings: C203, inoculated cells 10⁶ cells/ml, medium supplemented with 10% horse blood
Description: as §1, §4

[12] = test system: Corynebacterium diphtheriae Tronto; experiment: as above; settings: inoculated cells 10⁶ cells/ml, medium supplemented with 10% horse blood
Description: as §1, §4

P.aeruginosa U-31 = experiment: as above; settings: Pseudomonas aeruginosa, U31; inoculated cells 10⁶ cells/ml
Description: as §1, §4

S. pneumoniae Type-III = experiment: as above; settings: Streptococcus pneumoniae; inoculated cells 10⁶ cells/ml; medium supplemented with 10% horse blood
Description: as §1, §4

Shigella flexneri EW-10 = experiment: as above; settings: EW10, inoculated cells 10⁶ cells/ml
Description: as §1, §4

[13] = test system: Enterococcus faecalis LS-101; experiment: as above; settings: LS101, inoculated cells 10⁶ cells/ml
Description: as §1, §4

[14] = test system: Staphylococcus aureus FDA 209P; experiment: as above; settings: FDA209P, inoculated cells 10⁶ cells/ml
Description: as §1, §4

S. epidermidis SEY-223 = experiment: as above; settings: Staphylococcus epidermidis, SEY223; quinolone resistant bacteria; inoculated cells 10⁶ cells/ml
Description: as §1, §4

[15] = test system: Citrobacter freundii IFO 12681; experiment: as above; settings: IFO12681, inoculated cells 10⁶ cells/ml
Description: as §1, §4

E. faecalis EFY-204 = experiment: as above; settings: Enterococcus faecalis, EFY204; quinolone resistant bacteria; inoculated cells 10⁶ cells/ml
Description: as §1, §4

P. mirabilis IFO 3849 = experiment: as above; settings: Proteus mirabilis, IFO3849; inoculated cells 10⁶ cells/ml
Description: as §1, §4

K.pneumoniae DT-S = experiment: as above; settings: Klebsiella pneumoniae; inoculated cells 10⁶ cells/ml
Description: as §1, §4

Klebsiella pneumoniae DT = experiment: as above; settings: inoculated cells 10⁶ cells/ml
Description: as §1, §4

E. faecium EFMY-28 = experiment: as above; settings: Enterococcus faecium, EFMY28; inoculated cells 10⁶ cells/ml
Description: as §1, §4

Which results are given for CC1COc2c(N3CCN(C)CC3)c(F)cc3c(=O)c(C(=O)O)cn1c23 (centres unmarked) [Comp. Ex. 2, 9-fluoro-2,3-dihydro-3-methyl-10-(4-methyl-1-piperazinyl)-7-oxo-7H-pyrido [1. 2. 3-de) [1.4] benzoxazine-6-carboxylic acid, reference compound]?
MIC [1]: 0.39 µg/mL (≈ 1.08 µM); MIC [2]: 1.56 µg/mL (≈ 4.32 µM); MIC [3]: 0.39 µg/mL (≈ 1.08 µM); MIC (B. fragilis BFY-18): 1.56 µg/mL (≈ 4.32 µM); MIC [4]: 1.56 µg/mL (≈ 4.32 µM); MIC [5]: 0.39 µg/mL (≈ 1.08 µM); MIC [6]: 3.13 µg/mL (≈ 8.66 µM); MIC (S. aureus Smith): 0.05 µg/mL; MIC (E. coli KC-14): 0.05 µg/mL; MIC (S. aureus MRSA Y-238): > 100 µg/mL; MIC (M.catarrhalis ATCC 25238): 0.1 µg/mL (≈ 0.277 µM); MIC (S. aureus No.88): 50 µg/mL (≈ 138 µM); MIC [7]: 0.2 µg/mL (≈ 0.553 µM); MIC [8]: 0.39 µg/mL (≈ 1.08 µM); MIC (L.monocytogenes VTU-206): 3.13 µg/mL (≈ 8.66 µM); MIC (S. viridans America): 3.13 µg/mL (≈ 8.66 µM); MIC [9]: 0.2 µg/mL (≈ 0.553 µM); MIC [10]: 0.05 µg/mL (≈ 0.138 µM); MIC [11]: 1.56 µg/mL (≈ 4.32 µM); MIC [12]: 0.39 µg/mL (≈ 1.08 µM); MIC (P.aeruginosa U-31): 1.56 µg/mL (≈ 4.32 µM); MIC (S. pneumoniae Type-III): 0.78 µg/mL (≈ 2.16 µM); MIC (Shigella flexneri EW-10): 0.05 µg/mL (≈ 0.138 µM); MIC [13]: 0.39 µg/mL (≈ 1.08 µM); MIC [14]: 0.2 µg/mL (≈ 0.553 µM); MIC (S. epidermidis SEY-223): > 100 µg/mL; MIC [15]: 0.1 µg/mL (≈ 0.277 µM); MIC (E. faecalis EFY-204): 50 µg/mL (≈ 138 µM); MIC (P. mirabilis IFO 3849): 0.39 µg/mL (≈ 1.08 µM); MIC (K.pneumoniae DT-S): 0.05 µg/mL (≈ 0.138 µM); MIC (Klebsiella pneumoniae DT): 0.1 µg/mL (≈ 0.277 µM); MIC (E. faecium EFMY-28): 3.13 µg/mL (≈ 8.66 µM)
